Article PMC5623046, “A Simple PB/LIE Free Energy Function Accurately Predicts the Peptide Binding Specificity of the Tiam1 PDZ Domain” (Frontiers in Molecular Biosciences, 2017)
“And” between values parts separate entries of the source, which are not always exact repeats. Equal values may be shown once. Read-outs that look alike come from different tables or passages of the source. Marks after values point to notes of the source that are not given here. Values belong to the substance of their own block, whether it stands above or below them.

Experiments:
[1] = target: T1, wildtype Tiam1 PDZ domain (WT) (Homo sapiens, UniProt Q13009); assay: Fluorescence anisotropy binding of dansylated peptides; details: for Exp. relative binding free energy ΔΔG: relative to WT:Sdc1, this work, dansylated peptide 5–10 μM, 20 mM sodium phosphate, 50 mM NaCl, pH 6.8, 25°C, triplicate
T1 construct: The Tiam1 PDZ domain was purified by nickel-chelate (GE-Healthcare) and size-exclusion chromatography; His6 (N, cleaved yes); made in house; host or cells: Escherichia coli BL21(DE3)
Method: Typically, E. coli cells were grown at 37°C in Luria-Bertani (LB) medium supplemented with ampicillin (100 μg/mL) under vigorous agitation until an A600 of 0.6–0.8 was reached. Cultures were subsequently cooled to 18°C and protein expression was induced by the addition of isopropyl 1-thio-β-d-galactopyranoside (IPTG) to 1 mM final concentration. Induced cells were incubated for an additional 16–18 h at 18°C and harvested by centrifugation. The Tiam1 PDZ domain was purified by nickel-chelate (GE-Healthcare) and size-exclusion chromatography (Shepherd et al., [2010]). […] Undigested protein, cleaved His6 tag and His-tagged rTEV were separated from Tiam1 PDZ domain by nickel-chelate chromatography. The final yield was 20 mg of PDZ protein (>98% pure as judged by SDS-PAGE) from 1 L of culture. Samples were used immediately or lyophilized and stored at […].
All peptides were chemically synthesized by GenScript Inc. (Piscataway, NJ) and judged to be >95% pure based on analytical HPLC and mass spectrometry. Peptides were dansylated at their N-terminus. Peptide concentrations were determined by absorbance measurements (A280) using their predicted extinction coefficient. The peptides used in this study were Syndecan1 (Sdc1) point mutants and double mutants: Sdc1 (residues 303–310 of the full Syndecan protein: TKQEEFYACOOH), Sdc1-A0M (residues 303–310: TKQEEFYMCOOH), Sdc1-F2R (residues 303–310: TKQEERYACOOH), Sdc1-F2R/A0M (residues 303–310: TKQEERYMCOOH), Sdc1-F2A (residues 303–310: TKQEEAYACOOH), Sdc1-F2N (residues 303-310: TKQEENYACOOH), Sdc1-F2I (residues 303–310: TKQEEIYACOOH), Sdc1-E4L (residues 303–310: TKQLEFYACOOH), Sdc1-E3D/Y1T (residues 303–310: TKQEDFTACOOH), and Sdc1-E3T/Y1K (residues 303–310: TKQETFKACOOH). Notice that here and below, for the Sdc1 and other peptides, we number residue positions counting backwards from the peptide C-terminus (position 0). Thus, Sdc1-F2R is mutated at the third position from the C-terminus, which is usually called “position −2” (Shepherd and Fuentes, [2011]). We drop the negative sign to keep the notation simple.
Fluorescence anisotropy was used to monitor the binding of Tiam1 PDZ domain proteins to dansylated peptides. Anisotropy measurements were carried out on a Fluorolog3 (Jobin Yvon, Horiba, NJ) spectrofluorimeter (γex = 340 and γem = 550 nm). All data collection, fitting, and thermodynamic analyses were performed as previously described (Shepherd et al., [2011]). Binding experiments were conducted in 1.3 mL of binding buffer (20 mM sodium phosphate, 50 mM NaCl and pH 6.8) containing peptide at a concentration of 5–10 μM. Measurements were made in a 2 mL quartz cuvette that was stirred and maintained at constant 25°C temperature. The slit widths for the control of excitation and emission intensity were adjusted to the signal-to-noise ratio and maximum intensity and set in the range of 6–9 nm. A ratio of 1:100 and 1:10 dilutions of the stock PDZ protein solution (~1 mM) were prepared in binding buffer. For each experiment, 20–30 individual titration steps were performed until the sample had little or no change in anisotropy. The change in fluorescence anisotropy was plotted against protein concentration and fit to a standard hyperbolic ligand-binding curve. Each titration was carried out in triplicate.

[2] = target: T1, wildtype Tiam1 PDZ domain (WT); details: relative to WT:Sdc1; ref Shepherd et al., [2011]; Liu et al., [2013]; cited from earlier work
Source text: Table 1 Tiam1-PDZ:peptide complexes and free energies used for model fitting. | column: Exp.^a || Table 2 Tiam1-PDZ:peptide complexes and free energies not used for model fitting. | column: Exp.^a || Table 4 Alchemical free energy simulation (FEP) results. | column: Exp. || (+ 3 further places)

[3] = test system: Tiam1 PDZ domain L911M,K912E; details: relative to WT:Sdc1; ref Shepherd et al., [2011]; Liu et al., [2013]; cited from earlier work
Source text: (§1) Table 1 Tiam1-PDZ:peptide complexes and free energies used for model fitting. | column: Exp.^a || Table 2 Tiam1-PDZ:peptide complexes and free energies not used for model fitting. | column: Exp.^a

[4] = test system: Tiam1 PDZ domain L915F,L920V; details: relative to WT:Sdc1; ref Shepherd et al., [2011]; Liu et al., [2013]; cited from earlier work
Source text: as §1

[5] = test system: Tiam1 PDZ domain quadruple mutant (QM); details: relative to WT:Sdc1; ref Shepherd et al., [2011]; Liu et al., [2013]; cited from earlier work
Source text: as §1

Tiam1 PDZ domain K912E = details: relative to WT:Sdc1; ref Shepherd et al., [2011]; Liu et al., [2013]; cited from earlier work
Source text: (§2) Table 1 Tiam1-PDZ:peptide complexes and free energies used for model fitting. | column: Exp.^a

Tiam1 PDZ domain L911M = details: relative to WT:Sdc1; ref Shepherd et al., [2011]; Liu et al., [2013]; cited from earlier work
Source text: as §2

Tiam1 PDZ domain L915F = details: relative to WT:Sdc1; ref Shepherd et al., [2011]; Liu et al., [2013]; cited from earlier work
Source text: as §2

Tiam1 PDZ domain L920V = details: ref Shepherd et al., [2011], Liu et al., [2013], cited from earlier work; for Exp. relative binding free energy ΔΔG: relative to WT:Sdc1
Source text: Table 1 Tiam1-PDZ:peptide complexes and free energies used for model fitting. | column: Exp.^a || Tables 1, 2 list the 44 peptide and protein variants for which experimental binding data are available along with the corresponding binding free energy differences (ΔΔG) relative to the wildtype:Sdc1 complex (WT:Sdc1), taken as a reference. Notice that positions within each peptide ligand are numbered backwards from the C-terminus (“position 0”). For two complexes, experimental measurements were not available and ΔΔG was obtained in this work using rigorous alchemical free energy simulations (see below). Seventeen of the complexes involve Tiam1 mutations at one or more of four positions. These ...

[6] = target: Syndecan-1 (Sdc1) peptide (Homo sapiens) (UniProt P18827); details: cited from earlier work
Syndecan-1 (Sdc1) peptide (Homo sapiens), sequence (P18827 23-310): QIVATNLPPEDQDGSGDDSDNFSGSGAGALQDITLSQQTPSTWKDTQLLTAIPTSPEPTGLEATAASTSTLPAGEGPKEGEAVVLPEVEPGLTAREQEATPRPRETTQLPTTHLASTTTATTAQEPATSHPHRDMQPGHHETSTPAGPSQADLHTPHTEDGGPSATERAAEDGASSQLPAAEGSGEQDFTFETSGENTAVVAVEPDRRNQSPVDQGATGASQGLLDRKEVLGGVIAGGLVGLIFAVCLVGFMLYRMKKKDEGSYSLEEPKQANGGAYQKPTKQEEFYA

T1 sequence (Q13009 841-930 limits assumed): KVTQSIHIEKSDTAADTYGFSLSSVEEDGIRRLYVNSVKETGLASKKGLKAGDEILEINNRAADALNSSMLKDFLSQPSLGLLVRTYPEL
Tiam1 PDZ, sequence (Q13009 842-911): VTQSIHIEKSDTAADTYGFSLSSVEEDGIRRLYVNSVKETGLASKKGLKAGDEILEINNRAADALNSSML

Exp. relative binding free energy ΔΔG [1]: 0.80^e kcal/mol and 0.80 kcal/mol
Substance: TKQEEIYACOOH [Sdc1.F2I, Sdc1 point mutant, Ile at position 2]

Exp. relative binding free energy ΔΔG [1]: 1.33^e kcal/mol
Exp. relative binding free energy ΔΔG ([1]; listed as Sdc1-E3T,Y1K): 1.33 kcal/mol
Substance: TKQETFKACOOH [Sdc1.E3T, Y1K, Sdc1 double mutant]

Exp. relative binding free energy ΔΔG [1]: 0.56^e kcal/mol
Substance: TKQLEFYACOOH [Sdc1.E4L, Sdc1 point mutant, Leu at position 4]

Substance: YAAEKYWA [peptide from a combinatorial library]
Exp. relative binding free energy ΔΔG [2]: 0.72 kcal/mol

Exp. relative binding free energy ΔΔG [1]: ≥ 1.32 kcal/mol
affinity for WT (in words) ([1]; this work): does not have a detectable affinity
Substance: TKQEERYACOOH [Sdc1-F2R, Sdc1 point mutant, Arg at position 2]

Exp. relative binding free energy ΔΔG [1]: ≥ 1.32 kcal/mol
Substance: TKQEENYACOOH [Sdc1-F2N, Sdc1 point mutant, Asn at position 2]

Substance: YAARKFAK
Exp. relative binding free energy ΔΔG [2]: ≥ 1.32^g kcal/mol

Exp. relative binding free energy ΔΔG [1]: 0.87^e kcal/mol
Substance: TKQEDFTACOOH [Sdc1.E3D, Y1T, Sdc1 double mutant]

Exp. relative binding free energy ΔΔG [1]: ≥ 1.32 kcal/mol
Substance: TKQEEAYACOOH [Sdc1-F2A, Sdc1 point mutant, Ala at position 2]

Substance: NKDKEYYV [Neur, peptide corresponding to the C-terminus of Neurexin]
Exp. relative binding free energy ΔΔG [3]: 1.25 kcal/mol
Exp. relative binding free energy ΔΔG [4]: 1.08 kcal/mol
Exp. relative binding free energy ΔΔG [5]: 0.32 kcal/mol

Substance: YAAKAFRF [peptide from a combinatorial library]
Exp. relative binding free energy ΔΔG [2]: 1.17 kcal/mol

Substance: YAALIHKF
Exp. relative binding free energy ΔΔG [2]: ≥ 1.32^g kcal/mol

Substance: SSRKEYYA [Consensus]
Exp. relative binding free energy ΔΔG [2]: 0.84 kcal/mol

Substance: YAAQKHFH
Exp. relative binding free energy ΔΔG [2]: ≥ 1.32^g kcal/mol

Substance: YAAYRYRA
Exp. relative binding free energy ΔΔG [2]: ≥ 1.32^g kcal/mol

Exp. relative binding free energy ΔΔG [1]: 1.56^d kcal/mol and 1.56 kcal/mol
Substance: TKQEEFYMCOOH [Sdc1.A0M, Sdc1 point mutant, Met at position 0]

Substance: YAAGRKHF
Exp. relative binding free energy ΔΔG [2]: ≥ 1.32^g kcal/mol

Substance: TKQEEFYACOOH [Sdc1, C-terminal peptide of Syndecan1, residues 303–310]
Exp. relative binding free energy ΔΔG [2]: 0.00 kcal/mol
Exp. relative binding free energy ΔΔG (Tiam1 PDZ domain K912E): 0.97 kcal/mol
Exp. relative binding free energy ΔΔG (Tiam1 PDZ domain L911M): 0.15 kcal/mol
Exp. relative binding free energy ΔΔG (Tiam1 PDZ domain L915F): 0.65 kcal/mol
Exp. relative binding free energy ΔΔG [3]: 1.21 kcal/mol
Exp. relative binding free energy ΔΔG [4]: 1.32 kcal/mol
Exp. relative binding free energy ΔΔG [5]: 0.89 kcal/mol
Exp. relative binding free energy ΔΔG (Tiam1 PDZ domain L920V): 0.31 kcal/mol

Substance: YAAKRTYV
Exp. relative binding free energy ΔΔG [2]: ≥ 1.32^g kcal/mol

Substance: Tiam1 PDZ (from UniProt Q13009)
Kd [6]: 26.9 µM

Substance: ENQKEYFF [Caspr4, peptide corresponding to the C-terminus of Caspr4]
Exp. relative binding free energy ΔΔG [2]: -0.21 kcal/mol
Exp. relative binding free energy ΔΔG (Tiam1 PDZ domain K912E): 0.46 kcal/mol
Exp. relative binding free energy ΔΔG (Tiam1 PDZ domain L911M): -0.39 kcal/mol
Exp. relative binding free energy ΔΔG (Tiam1 PDZ domain L915F): 0.48 kcal/mol
Exp. relative binding free energy ΔΔG [3]: 0.04 kcal/mol
Exp. relative binding free energy ΔΔG [4]: 0.62 kcal/mol
Exp. relative binding free energy ΔΔG [5]: -0.23 kcal/mol
Exp. relative binding free energy ΔΔG (Tiam1 PDZ domain L920V): -0.54 kcal/mol
Kd (Tiam1 PDZ domain L920V; strongest binding in the dataset): 10.8 µM
